Data from PubChem BioAssay AID1963835 (Molecular Pharmacology Branch, DTP, NCI, 2024).

System: 699152-130-R-J1-PDC complex spheroid viability
Assay: Anticancer human tumor 699152-130-R-J1-PDC patient-derived pancreatic carcinoma cell line growth inhibition [POLQ]
Conditions: for IC50: curve of first compound; for viability, T/C: stronger effect = lower value
Summary of the method: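 PDC + HUVEC + MSC complex spheroids; POLQ inhibitors ± partner drugs; top conc. at/near clinical Cmax, else 10 microM (SN-38 1 microM), half-log dilutions; 37 degrees C, 5% CO2.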

[1] = second compound 0.0316 µM, first compound 0.0316 µM
[2] = second compound 0.0316 µM, first compound 0.1 µM
[3] = second compound 0.0316 µM, first compound 0.316 µM
[4] = second compound 0.0316 µM, first compound 1 µM
[5] = second compound 0.0316 µM, first compound 3.16 µM
[6] = second compound 0.0316 µM, first compound 10 µM
[7] = second compound 0.1 µM, first compound 0.0316 µM
[8] = second compound 0.1 µM, first compound 0.1 µM
[9] = second compound 0.1 µM, first compound 0.316 µM
[10] = second compound 0.1 µM, first compound 1 µM
[11] = second compound 0.1 µM, first compound 3.16 µM
[12] = second compound 0.1 µM, first compound 10 µM
[13] = second compound 0.316 µM, first compound 0.0316 µM
[14] = second compound 0.316 µM, first compound 0.1 µM
[15] = second compound 0.316 µM, first compound 0.316 µM
[16] = second compound 0.316 µM, first compound 1 µM
[17] = second compound 0.316 µM, first compound 3.16 µM
[18] = second compound 0.316 µM, first compound 10 µM
[19] = second compound 1 µM, first compound 0.0316 µM
[20] = second compound 1 µM, first compound 0.1 µM
[21] = second compound 1 µM, first compound 0.316 µM
[22] = second compound 1 µM, first compound 1 µM
[23] = second compound 1 µM, first compound 3.16 µM
[24] = second compound 1 µM, first compound 10 µM
[25] = second compound 3.16 µM, first compound 0.0316 µM
[26] = second compound 3.16 µM, first compound 0.1 µM
[27] = second compound 3.16 µM, first compound 0.316 µM
[28] = second compound 3.16 µM, first compound 1 µM
[29] = second compound 3.16 µM, first compound 3.16 µM
[30] = second compound 3.16 µM, first compound 10 µM
[31] = second compound 10 µM, first compound 0.0316 µM
[32] = second compound 10 µM, first compound 0.1 µM
[33] = second compound 10 µM, first compound 0.316 µM
[34] = second compound 10 µM, first compound 1 µM
[35] = second compound 10 µM, first compound 3.16 µM
[36] = second compound 10 µM, first compound 10 µM
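Also: spheroids exposed to agents for 7 days before viability reading.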
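For viability, T/C in this document: percent of DMSO vehicle control viability so 100% = vehicle and 0% = no viable signal.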

CC(=O)O[C@H]1C(=O)[C@@]2(C)[C@H]([C@H](OC(=O)c3ccccc3)[C@]3(O)C[C@H](OC(=O)[C@H](O)[C@@H](NC(=O)c4ccccc4)c4ccccc4)C(C)=C1C3(C)C)[C@]1(OC(C)=O)CO[C@@H]1C[C@@H]2O + Cc1cccc(N(C)C(=O)C2C(O)CCN2c2nc(C)cc(C(F)(F)F)c2C#N)c1
IC50 (second compound 0.0316 µM): > 3 µM
IC50 (second compound 0.1 µM): > 3 µM
IC50 (second compound 0.316 µM): > 3 µM
IC50 (second compound 1 µM): > 3 µM
IC50 (second compound 3.16 µM): > 3 µM
IC50 (second compound 10 µM): > 3 µM
viability, T/C (second compound 0.0316 µM, first compound 0.00949 µM): 83.5%
viability, T/C (second compound 0.0316 µM, first compound 0.03 µM): 57.6%
viability, T/C (second compound 0.0316 µM, first compound 0.0949 µM): 56.1%
viability, T/C (second compound 0.0316 µM, first compound 0.3 µM): 56.9%
viability, T/C (second compound 0.0316 µM, first compound 0.949 µM): 67%
viability, T/C (second compound 0.0316 µM, first compound 3 µM): 65.9%
viability, T/C (second compound 0.1 µM, first compound 0.00949 µM): 79.7%
viability, T/C (second compound 0.1 µM, first compound 0.03 µM): 57.1%
viability, T/C (second compound 0.1 µM, first compound 0.0949 µM): 51%
viability, T/C (second compound 0.1 µM, first compound 0.3 µM): 57.7%
viability, T/C (second compound 0.1 µM, first compound 0.949 µM): 72.2%
viability, T/C (second compound 0.1 µM, first compound 3 µM): 64.9%
viability, T/C (second compound 0.316 µM, first compound 0.00949 µM): 74.5%
viability, T/C (second compound 0.316 µM, first compound 0.03 µM): 60.9%
viability, T/C (second compound 0.316 µM, first compound 0.0949 µM): 53.3%
viability, T/C (second compound 0.316 µM, first compound 0.3 µM): 59.4%
viability, T/C (second compound 0.316 µM, first compound 0.949 µM): 64.9%
viability, T/C (second compound 0.316 µM, first compound 3 µM): 64.1%
viability, T/C (second compound 1 µM, first compound 0.00949 µM): 81.2%
viability, T/C (second compound 1 µM, first compound 0.03 µM): 54.8%
viability, T/C (second compound 1 µM, first compound 0.0949 µM): 57.9%
viability, T/C (second compound 1 µM, first compound 0.3 µM): 61.3%
viability, T/C (second compound 1 µM, first compound 0.949 µM): 62.4%
viability, T/C (second compound 1 µM, first compound 3 µM): 71.8%
viability, T/C (second compound 3.16 µM, first compound 0.00949 µM): 82.8%
viability, T/C (second compound 3.16 µM, first compound 0.03 µM): 62.1%
viability, T/C (second compound 3.16 µM, first compound 0.0949 µM): 58.8%
viability, T/C (second compound 3.16 µM, first compound 0.3 µM): 65.2%
viability, T/C (second compound 3.16 µM, first compound 0.949 µM): 69.7%
viability, T/C (second compound 3.16 µM, first compound 3 µM): 79.1%
viability, T/C (second compound 10 µM, first compound 0.00949 µM): 84%
viability, T/C (second compound 10 µM, first compound 0.03 µM): 57%
viability, T/C (second compound 10 µM, first compound 0.0949 µM): 69.1%
viability, T/C (second compound 10 µM, first compound 0.3 µM): 65.9%
viability, T/C (second compound 10 µM, first compound 0.949 µM): 72.1%
viability, T/C (second compound 10 µM, first compound 3 µM): 82.8%

CC1COCCN1c1cc(C2(S(C)(=N)=O)CC2)nc(-c2ccnc3[nH]ccc23)n1 (stereo unspecified) + Cc1cccc(N(C)C(=O)C2C(O)CCN2c2nc(C)cc(C(F)(F)F)c2C#N)c1
IC50 (second compound 0.0316 µM): > 10 µM
IC50 (second compound 0.1 µM): > 10 µM
IC50 (second compound 0.316 µM): > 10 µM
IC50 (second compound 1 µM): > 10 µM
IC50 (second compound 3.16 µM): > 10 µM
IC50 (second compound 10 µM): > 10 µM
viability, T/C [1]: 102%
viability, T/C [2]: 95.6%
viability, T/C [3]: 90.2%
viability, T/C [4]: 99.9%
viability, T/C [5]: 81.4%
viability, T/C [6]: 64%
viability, T/C [7]: 99.8%
viability, T/C [8]: 110%
viability, T/C [9]: 89.5%
viability, T/C [10]: 92.8%
viability, T/C [11]: 75.2%
viability, T/C [12]: 73.7%
viability, T/C [13]: 110%
viability, T/C [14]: 91.7%
viability, T/C [15]: 102%
viability, T/C [16]: 83.5%
viability, T/C [17]: 76.5%
viability, T/C [18]: 68.8%
viability, T/C [19]: 107%
viability, T/C [20]: 97.8%
viability, T/C [21]: 97.5%
viability, T/C [22]: 81.7%
viability, T/C [23]: 80.2%
viability, T/C [24]: 67.8%
viability, T/C [25]: 102%
viability, T/C [26]: 97.9%
viability, T/C [27]: 99%
viability, T/C [28]: 96.3%
viability, T/C [29]: 77.5%
viability, T/C [30]: 70.8%
viability, T/C [31]: 104%
viability, T/C [32]: 110%
viability, T/C [33]: 103%
viability, T/C [34]: 85.8%
viability, T/C [35]: 95.1%
viability, T/C [36]: 69.8%

COc1cccc2c1C(=O)c1c(O)c3c(c(O)c1C2=O)CC(O)(C(=O)CO)CC3OC1CC(N)C(O)C(C)O1 (stereo unspecified) + Cc1cccc(N(C)C(=O)C2C(O)CCN2c2nc(C)cc(C(F)(F)F)c2C#N)c1
IC50 (second compound 0.0316 µM): 0.222 µM
IC50 (second compound 0.1 µM): 0.244 µM
IC50 (second compound 0.316 µM): 0.279 µM
IC50 (second compound 1 µM): 0.276 µM
IC50 (second compound 3.16 µM): 0.275 µM
IC50 (second compound 10 µM): 0.257 µM
viability, T/C [1]: 102%
viability, T/C [2]: 59%
viability, T/C [3]: 47.5%
viability, T/C [4]: 34%
viability, T/C [5]: 3.59%
viability, T/C [6]: 10.4%
viability, T/C [7]: 81.1%
viability, T/C [8]: 61.3%
viability, T/C [9]: 47%
viability, T/C [10]: 31.3%
viability, T/C [11]: 3.36%
viability, T/C [12]: 8.95%
viability, T/C [13]: 85.7%
viability, T/C [14]: 66%
viability, T/C [15]: 49.5%
viability, T/C [16]: 29.6%
viability, T/C [17]: 3.68%
viability, T/C [18]: 10.9%
viability, T/C [19]: 81.9%
viability, T/C [20]: 68.5%
viability, T/C [21]: 46.8%
viability, T/C [22]: 28.7%
viability, T/C [23]: 4.78%
viability, T/C [24]: 12.1%
viability, T/C [25]: 85%
viability, T/C [26]: 60.7%
viability, T/C [27]: 55.2%
viability, T/C [28]: 20%
viability, T/C [29]: 6.82%
viability, T/C [30]: 10.3%
viability, T/C [31]: 84.4%
viability, T/C [32]: 60.2%
viability, T/C [33]: 53.2%
viability, T/C [34]: 12%
viability, T/C [35]: 7.55%
viability, T/C [36]: 10.8%
